Columns and labels:
Format in all cases: in vivo
Conditions in all cases: rated four to five weeks after treatment
[1] = system: ECHINOCHLOA CRUS-GALLI, (L) BEAU; test: Postemergence herbicidal evaluation, ECHCG (Barnyardgrass)
Procedure, shortened: (§1)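 Greenhouse postemergence test: two-week seedlings, 40 psi spray of 0.125–0.500 kg/ha active in acetone/water with surfactant. Scored visually 0–9 at 4–5 weeks.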

[2] = system: SETARIA VIRIDIS, (L) BEAU; test: Postemergence herbicidal evaluation, SETVI (Foxtail, Green)
Procedure, shortened: as §1

ZEA MAYS L. [3] = test: Postemergence herbicidal evaluation, ZEAMX (Corn, Field)
Procedure: (§2) In the tests, seedling plants are grown in jiffy flats for about two weeks. The test compounds are dispersed in 50/50 acetone/water mixtures containing 0.5% TWEEN®20, a polyoxyethylene sorbitan monolaurate surfactant of Atlas Chemical Industries, in sufficient quantities to provide the equivalent of about 0.125 kg to 0.500 kg per hectare of active compound when applied to the plants through a spray nozzle operating at 40 psi for a predetermined time. After spraying, the plants are placed on greenhouse benches and are cared for in the usual manner, commensurate with conventional greenhouse practices. From four to five weeks after treatment, the seedling plants are examined and rated according to the rating system set forth below. Where more than one test is involved for a given compound, the data are averaged.
(§3) Results of herbicide evaluation are expressed on a rating scale (0-9). The scale is based upon a visual observation of plant stand, vigor, malformation, size, chlorosis and overall plant appearance as compared with a control.

[4] = system: ABUTILON THEOPHRASTI, MEDIC.; test: Preemergence herbicidal evaluation, ABUTH (Velvetleaf)
Procedure, shortened: (§4)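 Seeds mixed with potting soil were planted over about one inch of soil, then sprayed with aqueous acetone solution of test compound at about 0.125 to 0.50 kg per hectare. Cups were kept under standard greenhouse care, and plants were rated visually on a 0-9 scale versus control after four to five weeks.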

[5] = system: AMBROSIA ARTEMISIIFOLIA, L.; test: Preemergence herbicidal evaluation, AMBEL (Ragweed, Common)
Procedure, shortened: as §4

IPOMOEA SPP. = test: Preemergence herbicidal evaluation, IPOSS (Morningglory Spp.)
Procedure, shortened: as §4

[6] = system: GLYCINE MAX(L)MERR. CV. WILLIAMS; test: Preemergence herbicidal evaluation, GLXMAW (Soybean, Williams)
Procedure, shortened: as §4

[7] = system: TRITICUM AESTIVUM, CV. APOLLO; test: Preemergence herbicidal evaluation, TRZAWO (Wheat, Winter, CV. APOLLO)
Procedure, shortened: as §4

ZEA MAYS L. [8] = test: Preemergence herbicidal evaluation, ZEAMX (Corn, Field)
Procedure, shortened: as §4

CHENOPODIUM ALBUM, L. [9] = test: Postemergence herbicidal evaluation, CHEAL (Lambsquarters, Common)
Procedure: as §2, §3

CASSIA OBTUSIFOLIA, L. = test: Preemergence herbicidal evaluation, CASOB (Sicklepod)
Procedure, shortened: as §4

CHENOPODIUM ALBUM, L. [10] = test: Preemergence herbicidal evaluation, CHEAL (Lambsquarters, Common)
Procedure, shortened: as §4

[11] = system: ECHINOCHLOA CRUS-GALLI, (L) BEAU; test: Preemergence herbicidal evaluation, ECHCG (Barnyardgrass)
Procedure, shortened: as §4

[12] = system: SETARIA VIRIDIS, (L) BEAU; test: Preemergence herbicidal evaluation, SETVI (Foxtail, Green)
Procedure, shortened: as §4

[13] = system: ORYZA SATIVA, L. TEBONNET; test: Preemergence herbicidal evaluation, ORYSAT (Rice, Tebonnet)
Procedure, shortened: as §4

| Structure (SMILES) | Herbicide rating (0-9) ECHCG ([1]; 0.125 kg/ha) | Herbicide rating (0-9) ECHCG ([1]; 0.250 kg/ha) | Herbicide rating (0-9) ECHCG ([1]; 0.500 kg/ha) | Herbicide rating (0-9) AMBEL ([5]; 0.125 kg/ha) | Herbicide rating (0-9) AMBEL ([5]; 0.250 kg/ha) | Herbicide rating (0-9) AMBEL ([5]; 0.500 kg/ha) | Herbicide rating (0-9) IPOSS (IPOMOEA SPP.; 0.125 kg/ha) | Herbicide rating (0-9) IPOSS (IPOMOEA SPP.; 0.250 kg/ha) | Herbicide rating (0-9) IPOSS (IPOMOEA SPP.; 0.500 kg/ha) | Herbicide rating (0-9) GLXMAW ([6]; 0.125 kg/ha) | Herbicide rating (0-9) GLXMAW ([6]; 0.250 kg/ha) | Herbicide rating (0-9) GLXMAW ([6]; 0.500 kg/ha) | Herbicide rating (0-9) TRZAWO ([7]; 0.125 kg/ha) | Herbicide rating (0-9) TRZAWO ([7]; 0.250 kg/ha) | Herbicide rating (0-9) TRZAWO ([7]; 0.500 kg/ha) | Herbicide rating (0-9) ZEAMX (ZEA MAYS L. [8]; 0.125 kg/ha) | Herbicide rating (0-9) ZEAMX (ZEA MAYS L. [8]; 0.250 kg/ha) | Herbicide rating (0-9) ZEAMX (ZEA MAYS L. [8]; 0.500 kg/ha) | other results |
| --- | --- | --- | --- | --- | --- | --- | --- | --- | --- | --- | --- | --- | --- | --- | --- | --- | --- | --- | --- |
| COC(=O)Cn1c(=O)n(C)c(=O)n(-c2cc(N3C(=O)C4=C(CCCC4)C3=O)c(F)cc2F)c1=O [Compound 10, Methyl 3-[5-(1-cyclohexene-1,2-dicarbox-imido)-2,4-difluorophenyl]-5-methyl-2,4,6-trioxo-s-triazine-1(2H)-acetate] | 0.0 | 0.0 | 0.0 | 0.0 | 0.0 | 0.0 | 0.0 | 0.0 | 0.0 | 0.0 | 0.0 | 0.0 | 0.0 | 0.0 | 0.0 | 0.0 | 0.0 | 0.0 | Herbicide rating (0-9) SETVI ([2]; 0.125 kg/ha): 0.0; Herbicide rating (0-9) SETVI ([2]; 0.250 kg/ha): 0.0; Herbicide rating (0-9) SETVI ([2]; 0.500 kg/ha): 0.0; Herbicide rating (0-9) ZEAMX (ZEA MAYS L. [3]; 0.125 kg/ha): 4.0; Herbicide rating (0-9) ZEAMX (ZEA MAYS L. [3]; 0.250 kg/ha): 4.0; Herbicide rating (0-9) ZEAMX (ZEA MAYS L. [3]; 0.500 kg/ha): 4.0; Herbicide rating (0-9) ABUTH ([4]; 0.250 kg/ha): 0.0; Herbicide rating (0-9) ABUTH ([4]; 0.500 kg/ha): 0.0 |
| CC(C)OC(=O)Cn1c(=O)n(C)c(=O)n(-c2cc(N3C(=O)c4cccc(F)c4C3=O)c(F)cc2Cl)c1=O [Compound 11, Isopropyl 3-[2-chloro-4-fluoro-5-(3-fluoro-phthalimido)phenyl]tetrahydro-5-methyl-2,4,6-trioxo-s-triazine-1(2H)-acetate] | 3.0 | 3.0 | 3.0 | 0.0 | 0.0 | 0.0 | 0.0 | 0.0 | 0.0 | 0.0 | 0.0 | 0.0 | 0.0 | 0.0 | 0.0 | 0.0 | 0.0 | 0.0 | Herbicide rating (0-9) CHEAL (CHENOPODIUM ALBUM, L. [9]; 0.125 kg/ha): 9.0; Herbicide rating (0-9) CHEAL (CHENOPODIUM ALBUM, L. [9]; 0.250 kg/ha): 9.0; Herbicide rating (0-9) CHEAL (CHENOPODIUM ALBUM, L. [9]; 0.500 kg/ha): 9.0; Herbicide rating (0-9) CASOB (CASSIA OBTUSIFOLIA, L.; 0.125 kg/ha): 0.0; Herbicide rating (0-9) CASOB (CASSIA OBTUSIFOLIA, L.; 0.250 kg/ha): 0.0; Herbicide rating (0-9) CASOB (CASSIA OBTUSIFOLIA, L.; 0.500 kg/ha): 0.0; Herbicide rating (0-9) CHEAL (CHENOPODIUM ALBUM, L. [10]; 0.125 kg/ha): 9.0; Herbicide rating (0-9) CHEAL (CHENOPODIUM ALBUM, L. [10]; 0.250 kg/ha): 9.0; Herbicide rating (0-9) CHEAL (CHENOPODIUM ALBUM, L. [10]; 0.500 kg/ha): 9.0; Herbicide rating (0-9) ECHCG ([11]; 0.125 kg/ha): 0.0; Herbicide rating (0-9) ECHCG ([11]; 0.250 kg/ha): 0.0; Herbicide rating (0-9) ECHCG ([11]; 0.500 kg/ha): 0.0; Herbicide rating (0-9) SETVI ([12]; 0.125 kg/ha): 0.0; Herbicide rating (0-9) SETVI ([12]; 0.250 kg/ha): 0.0; Herbicide rating (0-9) SETVI ([12]; 0.500 kg/ha): 0.0; Herbicide rating (0-9) ORYSAT ([13]; 0.125 kg/ha): 0.0; Herbicide rating (0-9) ORYSAT ([13]; 0.250 kg/ha): 0.0; Herbicide rating (0-9) ORYSAT ([13]; 0.500 kg/ha): 0.0 |

Source: patent EP0745599A2, “1-(3-Heterocyclylphenyl)-s-triazine-2,4,6-oxo or thiotrione herbicidal agents” (American Cyanamid Company, priority 1995, dated 1996)
